row,SMILES,melting point [°C]
1,COC(=O)c1ccc(NC(=O)c2ccccc2Cc2ccccc2)cc1,138 to 139
2,COc1cc2c(cc1O)/C(=N/OCc1ccc([N+](=O)[O-])cc1)CCC2,125 to 127
3,Cc1cccc(C2(O)CCN(CC3CCc4ccccc4C3=O)CC2)c1 (stereo unspecified),157 to 159
4,CC(C)c1nc(CCCOCc2ccccc2)n(CCO)c1Sc1cc(Cl)cc(Cl)c1,104 to 106
5,Cc1cccc2c(=O)cc(C(=O)Nc3ccc(CC4SC(=O)NC4=O)cc3)oc12 (stereo unspecified),305 to 307
6,CC1(C)CC(=O)c2cc(O)ccc2O1,158
7,CCOC(=O)c1cn(CC)c2nc(N3CCN(C)CC3)ncc2c1=O,146 to 147
8,COC(=O)C1=C(C)NC(C)=C(C(=O)OCCN2CCN(C(c3ccc(C)cc3)c3ccc(C)cc3)CC2)C1c1cccc([N+](=O)[O-])c1 (stereo unspecified),83 to 87
9,CC1=C2c3c(cnc4cc(Cl)ccc34)NC2CCN1 (stereo unspecified),209 to 212
10,Cc1sc(CCc2ccc(C=CC=C3OC(=O)NC3=O)cc2)nc1-c1ccccc1,161 to 162
11,COC(C)=CC(=O)Nc1cccc(C(F)(F)F)c1,90
12,CSc1ccc(C(=O)CC(F)(F)F)cc1,118 to 120
13,CCCCCCCCCCCCCCOc1cc(-c2ccccc2)c(OCC(=O)O)c(-c2ccccc2)c1,89 to 90
14,O=C(NNS(=O)(=O)c1ccccc1)c1ccc2c(c1)OCO2,156 to 158
15,COc1nnc2n1C=Cc1ccccc1C2,160 to 161
16,Cc1ccc(S(=O)(=O)Oc2ccc(C=O)cc2OS(=O)(=O)c2ccc(C)cc2)cc1,95 to 97
17,O=C(CCCOc1cc(-c2ccccc2)ccc1O)NO,148 to 152
18,c1ccc2[nH]c(-c3ccsc3)cc2c1,212 to 214
19,CCn1nc2c(N)nc3cnccc3c2c1CC(C)(C)C,> 260
20,Cc1cccc(Cl)c1C=NS,143
21,CC1C(c2ccccc2)OC(C)(C)N1C(=O)C(Cl)Cl (stereo unspecified),126
22,Cc1cc([N+](=O)[O-])c(C)cc1Oc1cccc(C(F)(F)F)c1,68 to 71

row,SMILES,melting point [°C]
1,CC(Br)(CBr)CS(=O)(=O)Oc1ccc([N+](=O)[O-])cc1 (stereo unspecified),56 to 58
2,COc1nc(C2CC2)nc(C(Cl)(Cl)Cl)n1,49 to 51
3,CC(C)(NC(=O)CCNC(=O)OCc1ccccc1)c1ccccc1,96 to 97
4,CNCC(O)c1cccc(Cl)c1 (stereo unspecified),95.5 to 97
5,Clc1ccc2c(c1)C=C(n1ccnc1)CO2,118 to 120
6,CC(C)(C)c1cc(NN=Cc2ccc(C(=O)O)cc2)cc(C(C)(C)C)c1,208 to 213
7,C=C(C(=O)OC)C(=O)c1ccc(OC)cc1,75 to 76
8,O=C(O)Cc1ccc(N2CC3=C(CCCC3)C2=O)cc1,189 to 191
9,OC1CCCc2cnc3cc(OCc4ccccc4)ccc3c21 (stereo unspecified),155 to 157
10,CNc1nc(SCc2ccc(OC)cc2)nc(N2CCOCC2)c1N,79.5 to 84
11,Cn1ncc(C(=O)O)c1C(=O)Nc1ccn2nc(N3CCCC3)nc2c1,> 250
12,CCOC(=O)c1cnc2c(F)c(F)ccc2c1Cl,114
13,C/C(=C(\C#N)C(N)=S)N1CCc2ccccc2C1,244 to 245
14,Cc1c(C)c2c(c(C)c1N)CC(C)(CN1CC=C(c3c[nH]c4ccccc34)CC1)O2 (stereo unspecified),169 to 173
15,CCOC(=O)COc1ccccc1C(O)(CC)c1cccc(Cl)c1 (stereo unspecified),83 to 84
16,CC1(C)Cc2cccc(O)c2S1,87 to 92
17,O=[N+]([O-])c1ccc2oc(-c3sccc3CBr)nc2c1,146 to 148
18,COc1ccc2cc(C(=O)CNC(=O)c3ccccc3)ccc2c1,172 to 174
19,CC(C)(C)OC(=O)c1nc(-c2ccccc2)[nH]c1-c1ccncc1,205 to 206
20,Fc1ccc2c(CCCN(c3ccncc3)c3csc4cccc(Cl)c34)noc2c1,135 to 136
21,COc1cc(COc2nn(-c3ccccc3)cc2/C=C/c2nc(N3CCCCC3)sc2C)ccc1OCc1nc(-c2ccc(CC(=O)O)cc2)oc1C,146 to 148
22,CSc1ccc(C2=C(c3ccccc3)C(=O)OC23CCCC3)cc1,147 to 148

row,SMILES,melting point [°C]
1,O=C1[C@@H]2CSC(c3ccccc3)N2C(=O)N1Cc1ccccc1 (stereo partly specified),79
2,COc1cc(C)c2c(c1)OC(C)(C)CC2=O,86 to 88
3,Cc1ccc2c(c1)c(=O)c1c(cnn1C)n2CC(N)=O,247 to 252
4,COc1cccc(C=C2NC(=O)NC2=O)c1OCc1ccccc1,210 to 212
5,Cc1ccc(N(C)c2ccco2)cc1O,127 to 128
6,Nc1cc(-n2cc(C(=O)O)c(=O)c3cc(F)c(Cl)nc32)c(F)cc1F,> 270
7,Cc1cnc(I)nc1Oc1cc(C(F)(F)F)nn1C,94
8,CCN1C(=O)OC(=Cc2ccc3c(c2)OCO3)C1=O,135 to 137
9,COCN1c2cc(CCl)ccc2Sc2nccnc21,125 to 126
10,C/C(=C\c1ccc(O)cc1)c1ccc2c(c1)OCC(C)(C)CO2,70 to 71
11,CC1=C(CC2=NCCN2)CCc2ccccc21,223 to 224
12,OC(c1ccccc1)(c1ccccc1)C1CCN(CCCOc2ccccc2)CC1,87 to 88
13,C=Cc1ccc2c(c1)CC(NC(=O)OC(C)(C)C)CC2 (stereo unspecified),89 to 91
14,Cc1ccc(CCCO)c(NCc2ccc3nc(NCCCN4CCOCC4)n(Cc4cccc(Br)n4)c3c2)c1,141
15,O=C(c1ccc(Nc2ccncc2)cc1)N1CCCCC1,170 to 172
16,CS(=O)(=O)c1ccc(-c2cc(C(F)(F)F)nn2-c2ccc(OC(F)(F)F)cc2)cc1F,110 to 112
17,O=C1CCCc2cc(I)ccc21,77 to 78
18,Cc1ccc(Br)cc1Cn1c(C(F)F)nn(C)c1=O,108
19,Cc1ccc2cccc(OCc3c(Cl)ccc(OCCN)c3Cl)c2n1,123 to 125
20,CCOC(=O)C1C(OC)C(=O)N1c1ccc(OC)cc1 (stereo unspecified),116 to 118
21,CCCCn1c(=O)c2c(nc(C)n2S(=O)(=O)CCCCl)n(CCCC)c1=O,76 to 78
22,CCC(C)C(Cl)C(=O)Oc1ccc(C(=O)O)cc1 (stereo unspecified),97 to 100

row,SMILES,melting point [°C]
1,CNC(=O)c1cc2c(Oc3ccc(C(=O)N4CCOCC4)cc3)cncc2s1,173 to 175
2,N=C(N)Nc1nc(CSCCNc2ncccc2C(=O)O)cs1,141 to 145
3,Nn1c(C(F)(F)F)cc(=O)n(-c2ccc(O)cc2)c1=O,150 to 155
4,CSc1ccc(-c2oncc2C(=O)C2CC2)nc1,103 to 104
5,CC1COCc2nc3c(N)nc4ccc(OCc5cscn5)cc4c3n21 (stereo unspecified),240 to 242
6,COc1cc(C=CC(=O)CCCOc2ccccc2)ccc1O,67 to 70
7,Cc1sc2[nH]c(=O)c(=O)[nH]c2c1C,> 300
8,O=C(OC1CCC1)N1CCC(c2nc3cc(-c4ccc(-n5cnnn5)cc4F)ccc3o2)CC1,165 to 169
9,Oc1ccc(-c2cc3cc(O)cc(Cn4ccnc4)c3o2)cc1,269 to 271
10,Nc1cccc2c(=O)[nH]sc12,161 to 165
11,O=C(O)c1ccc(NCCc2ccc(OCc3ccccc3)cc2)cc1,180 to 185
12,CCOc1cc2nc(NC)nc(-c3cccc(-c4cncc(SC)c4)c3)c2cc1OCC,105 to 107
13,CC(C)OC(=O)C(C(=O)Nc1ccc(C(F)(F)F)cc1)=C1SCS1,151 to 152
14,CC(C)(C)OC(=O)N1CC=C(c2ccc3oc(-c4ccc(S(C)(=O)=O)cc4F)nc3c2)CC1,149 to 151
15,COc1cc(N)c(Cl)cc1C(=O)NCC1CCN(CCCCCC(=O)c2ccc(F)cc2F)CC1,115 to 117
16,O=C1NC(=O)c2c1c(-c1ccccc1Cl)cc1c2c2cc(O)ccc2n1CCS(=O)(=O)c1ncn[nH]1,301 to 304
17,COC(=O)c1sc(-c2ccccc2)cc1NC(C)=O,115
18,N#Cc1cc2nc(O)c(O)nc2cc1C(F)(F)F,> 300
19,O=C(Nc1ccc2ccc(Cl)nc2n1)c1ccc(F)cc1,236
20,CCOC(=O)CCNC(=O)CCNC(=O)c1csc(NC(=N)N)n1,154 to 157
21,Cc1csc(C(O)(c2nc(C)cs2)C(F)(F)F)n1,140 to 142
22,O=C1c2ccccc2C2(O)Oc3c(ccc4c3CCCC4)C12O (stereo unspecified),252 to 254

row,SMILES,melting point [°C]
1,COc1ccc(-n2nc(Sc3ccc(F)cc3)c(C)c(C#N)c2=O)cc1,150 to 152
2,O=c1c(Br)c(Br)cnn1Cc1ccccc1,95 to 96
3,CC(C)=NOCc1nc2c(N)nc3ccccc3c2n1CC(C)(C)O,212 to 216
4,COC(=O)c1cccc2c1ccn2S(=O)(=O)c1ccc(C)cc1,145 to 147
5,CNc1c(S(=O)(=O)C(F)(F)F)c(-c2ncon2)nn1-c1c(Cl)cc(C(F)(F)F)cc1Cl,156 to 158
6,CC1(C)Oc2cc([N+](=O)[O-])sc2C(N2CCCC2=O)C1O (stereo unspecified),214 to 217
7,C/C(Br)=C(\Br)c1cn(-c2c(Cl)cc(C(F)(F)F)cc2Cl)nc1C#N,134 to 135
8,C[C@H](c1ccccc1)n1c(=O)[nH]c2ncc(-c3ccc(-c4nc[nH]n4)cc3)nc21,258 to 260
9,CC1(C)Oc2ccc(S(C)(=O)=O)cc2[C@@H](N2CCCS2(=O)=O)[C@@H]1O (relative stereo),220 to 221
10,Oc1cnc2cc(F)ccc2n1,304 to 305
11,Cc1onc(NS(=O)(=O)c2ccccc2)c1Cl,139 to 141
12,O=C(CBr)c1cc(O)c(O)c([N+](=O)[O-])c1,138 to 140
13,C[C@@H]1C[C@@H](O)CC(C)(C)C1=O,49 to 50
14,CC(=NNC(=S)N1CC2CCC(CC2)C1)c1ccccn1,156
15,Cc1c(NC(=O)Nc2ccc(-n3nc(C(F)(F)F)cc3C(F)(F)F)cc2)cccc1[N+](=O)[O-],235 to 236
16,CCC(c1ccc(C(O)(C(F)(F)F)C(F)(F)F)cc1)S(=O)(=O)c1ccccc1 (stereo unspecified),148
17,COc1ccc2c(c1)C1(CCCC1)C(O)(CC#N)CC2 (stereo unspecified),126 to 127
18,CCC(O)(CC(N)=O)c1ccc(Cl)c(Cl)c1 (stereo unspecified),99 to 100
